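A five-concentration, 48-hour dose response in 96-well plates underlies each endpoint, interpolated linearly between surrounding concentrations. GI50 is the concentration that inhibits growth by half. The concentration for full growth arrest is given as TGI.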
Columns and labels:
Test in all cases: growth of human tumour cells (NCI), 48 h
HCC-2998 colon = tested on: HCC-2998 colon
SNB-19 CNS = tested on: SNB-19 CNS
A549 NSCLC = tested on: A549 NSCLC
SF-539 CNS = tested on: SF-539 CNS
SW-620 colon = tested on: SW-620 colon
TK-10 renal = tested on: TK-10 renal
K-562 leukemia = tested on: K-562 leukemia
786-0 renal = tested on: 786-0 renal
SNB-75 CNS = tested on: SNB-75 CNS
MDA-MB-435 = tested on: MDA-MB-435
ACHN renal = tested on: ACHN renal
UACC-62 melanoma = tested on: UACC-62 melanoma
PC-3 prostate = tested on: PC-3 prostate
CAKI-1 renal = tested on: CAKI-1 renal
OVCAR-4 ovarian = tested on: OVCAR-4 ovarian
SK-MEL-5 melanoma = tested on: SK-MEL-5 melanoma
BT-549 breast = tested on: BT-549 breast
MDA-MB-231 breast = tested on: MDA-MB-231 breast
M14 melanoma = tested on: M14 melanoma
RXF 393 renal = tested on: RXF 393 renal
UACC-257 melanoma = tested on: UACC-257 melanoma
LOX IMVI melanoma = tested on: LOX IMVI melanoma
SK-MEL-28 melanoma = tested on: SK-MEL-28 melanoma
SK-OV-3 ovarian = tested on: SK-OV-3 ovarian
RPMI-8226 leukemia = tested on: RPMI-8226 leukemia
NCI-H522 lung = tested on: NCI-H522 lung
NCI/ADR-RES ovarian = tested on: NCI/ADR-RES ovarian
SN12C renal = tested on: SN12C renal
KM12 colon = tested on: KM12 colon
UO-31 renal = tested on: UO-31 renal
OVCAR-8 ovarian = tested on: OVCAR-8 ovarian
OVCAR-3 ovarian = tested on: OVCAR-3 ovarian
IGROV1 ovarian = tested on: IGROV1 ovarian
SK-MEL-2 melanoma = tested on: SK-MEL-2 melanoma
COLO 205 colon = tested on: COLO 205 colon
EKVX NSCLC = tested on: EKVX NSCLC
HS 578T breast = tested on: HS 578T breast
U251 CNS = tested on: U251 CNS
HCT-116 colon = tested on: HCT-116 colon
DU-145 prostate = tested on: DU-145 prostate
T-47D breast = tested on: T-47D breast
NCI-H460 lung = tested on: NCI-H460 lung
OVCAR-5 ovarian = tested on: OVCAR-5 ovarian
HOP-92 NSCLC = tested on: HOP-92 NSCLC
HCT-15 colon = tested on: HCT-15 colon
SF-295 CNS = tested on: SF-295 CNS
HOP-62 NSCLC = tested on: HOP-62 NSCLC

COc1cc2c(cc1OC)-c1ncc3c(OC)ccc(OC)c3c1C2
GI50 (HCC-2998 colon): 22.6 µM
TGI (HCC-2998 colon): > 100 µM
GI50 (SNB-19 CNS): 42.3 µM
TGI (SNB-19 CNS): > 100 µM
GI50 (A549 NSCLC): 16.1 µM
TGI (A549 NSCLC): > 100 µM
GI50 (SF-539 CNS): 14 µM
TGI (SF-539 CNS): 33.4 µM
GI50 (SW-620 colon): 35.1 µM
TGI (SW-620 colon): > 100 µM
GI50 (TK-10 renal): 16.8 µM
TGI (TK-10 renal): 43.6 µM
GI50 (K-562 leukemia): 12.3 µM
TGI (K-562 leukemia): 82 µM
GI50 (786-0 renal): 49.2 µM
TGI (786-0 renal): > 100 µM
GI50 (SNB-75 CNS): > 100 µM
TGI (SNB-75 CNS): > 100 µM
GI50 (MDA-MB-435): 23.4 µM
TGI (MDA-MB-435): 99.6 µM
GI50 (ACHN renal): 24 µM
TGI (ACHN renal): > 100 µM
GI50 (UACC-62 melanoma): 18 µM
TGI (UACC-62 melanoma): > 100 µM
GI50 (PC-3 prostate): 26.5 µM
TGI (PC-3 prostate): > 100 µM
GI50 (CAKI-1 renal): 14.4 µM
TGI (CAKI-1 renal): > 100 µM
GI50 (OVCAR-4 ovarian): 71.9 µM
TGI (OVCAR-4 ovarian): > 100 µM
GI50 (SK-MEL-5 melanoma): 12.4 µM
TGI (SK-MEL-5 melanoma): 34.3 µM
GI50 (BT-549 breast): 11.1 µM
TGI (BT-549 breast): 32.5 µM
GI50 (MDA-MB-231 breast): > 100 µM
TGI (MDA-MB-231 breast): > 100 µM
GI50 (M14 melanoma): > 100 µM
TGI (M14 melanoma): > 100 µM
GI50 (RXF 393 renal): 16.4 µM
TGI (RXF 393 renal): 48.9 µM
GI50 (UACC-257 melanoma): 19.7 µM
TGI (UACC-257 melanoma): 55.4 µM
GI50 (LOX IMVI melanoma): 16.7 µM
TGI (LOX IMVI melanoma): > 100 µM
GI50 (SK-MEL-28 melanoma): > 100 µM
TGI (SK-MEL-28 melanoma): > 100 µM
GI50 (SK-OV-3 ovarian): 37.3 µM
TGI (SK-OV-3 ovarian): 98.7 µM
GI50 (RPMI-8226 leukemia): 6.44 µM
TGI (RPMI-8226 leukemia): 78.2 µM
GI50 (NCI-H522 lung): 2.94 µM
TGI (NCI-H522 lung): 31.8 µM
GI50 (NCI/ADR-RES ovarian): 23.6 µM
TGI (NCI/ADR-RES ovarian): > 100 µM
GI50 (SN12C renal): 14.8 µM
TGI (SN12C renal): 58 µM
GI50 (KM12 colon): 16.5 µM
TGI (KM12 colon): 83.7 µM
GI50 (UO-31 renal): 18.3 µM
TGI (UO-31 renal): 60 µM
GI50 (OVCAR-8 ovarian): 2.36 µM
TGI (OVCAR-8 ovarian): 38.2 µM
GI50 (OVCAR-3 ovarian): 15.4 µM
TGI (OVCAR-3 ovarian): 46.8 µM
GI50 (IGROV1 ovarian): 13.9 µM
TGI (IGROV1 ovarian): 48.5 µM
GI50 (SK-MEL-2 melanoma): 27.3 µM
TGI (SK-MEL-2 melanoma): 79 µM
GI50 (COLO 205 colon): 42.7 µM
TGI (COLO 205 colon): > 100 µM
GI50 (EKVX NSCLC): 16.9 µM
TGI (EKVX NSCLC): 54.9 µM
GI50 (HS 578T breast): 8.05 µM
TGI (HS 578T breast): 42.4 µM
GI50 (U251 CNS): 14.6 µM
TGI (U251 CNS): 56.4 µM
GI50 (HCT-116 colon): 17.8 µM
TGI (HCT-116 colon): > 100 µM
GI50 (DU-145 prostate): 28.1 µM
TGI (DU-145 prostate): > 100 µM
GI50 (T-47D breast): 29 µM
TGI (T-47D breast): > 100 µM
GI50 (NCI-H460 lung): 20.9 µM
TGI (NCI-H460 lung): > 100 µM
GI50 (OVCAR-5 ovarian): 44 µM
TGI (OVCAR-5 ovarian): > 100 µM
GI50 (HOP-92 NSCLC): 39.4 µM
TGI (HOP-92 NSCLC): > 100 µM
GI50 (HCT-15 colon): 9.93 µM
TGI (HCT-15 colon): > 100 µM
GI50 (SF-295 CNS): 12.1 µM
TGI (SF-295 CNS): 42.7 µM
GI50 (HOP-62 NSCLC): 21.4 µM
TGI (HOP-62 NSCLC): 61.3 µM

From PubChem BioAssay (NCI)
